# Assay: Recovery rate of zinc bacitracin in various feeds on storage at ambient temperature
# Format: physicochemical
# Settings: initial 1,000 ppm = 100%
# Description: Stabilization of the active substance zinc bacitracin is achieved with the process according to the invention.
substance,measurement,setting,value
zinc bacitracin [Untreated control],Recovery rate of zinc bacitracin (ZBA) in %,"meal feed 2.16 mineral supplement, 1.5 weeks",94.6%
same,Recovery rate of zinc bacitracin (ZBA) in %,"meal feed 2.16 mineral supplement, 4 weeks",91.2%
same,Recovery rate of zinc bacitracin (ZBA) in %,"meal feed 2.16 mineral supplement, 6 weeks",68.5%
same,Recovery rate of zinc bacitracin (ZBA) in %,"meal feed 2.16 mineral supplement, 8 weeks",73.7%
same,Recovery rate of zinc bacitracin (ZBA) in %,"meal feed 2.6 complete feed for fattening pigs, 1.5 weeks",116.4%
same,Recovery rate of zinc bacitracin (ZBA) in %,"meal feed 2.6 complete feed for fattening pigs, 4 weeks",107.6%
same,Recovery rate of zinc bacitracin (ZBA) in %,"meal feed 2.6 complete feed for fattening pigs, 6 weeks",93.1%
same,Recovery rate of zinc bacitracin (ZBA) in %,"meal feed 2.6 complete feed for fattening pigs, 8 weeks",83.3%
same,Recovery rate of zinc bacitracin (ZBA) in %,"meal feed 7.4 complete feed for fattening chicks, 1.5 weeks",89.8%
same,Recovery rate of zinc bacitracin (ZBA) in %,"meal feed 7.4 complete feed for fattening chicks, 4 weeks",82.9%
same,Recovery rate of zinc bacitracin (ZBA) in %,"meal feed 7.4 complete feed for fattening chicks, 6 weeks",66.2%
same,Recovery rate of zinc bacitracin (ZBA) in %,"meal feed 7.4 complete feed for fattening chicks, 8 weeks",51.9%
same,Recovery rate of zinc bacitracin (ZBA) in %,"meal feed 7.7 complete feed for laying hens, 1.5 weeks",96.5%
same,Recovery rate of zinc bacitracin (ZBA) in %,"meal feed 7.7 complete feed for laying hens, 4 weeks",98.8%
same,Recovery rate of zinc bacitracin (ZBA) in %,"meal feed 7.7 complete feed for laying hens, 6 weeks",86.4%
same,Recovery rate of zinc bacitracin (ZBA) in %,"meal feed 7.7 complete feed for laying hens, 8 weeks",80.4%
same,Recovery rate of zinc bacitracin (ZBA) in %,"pellet feed 2.6 complete feed for fattening pigs, 1.5 weeks",90.5%
same,Recovery rate of zinc bacitracin (ZBA) in %,"pellet feed 2.6 complete feed for fattening pigs, 4 weeks",75.7%
same,Recovery rate of zinc bacitracin (ZBA) in %,"pellet feed 2.6 complete feed for fattening pigs, 6 weeks",48.8%
same,Recovery rate of zinc bacitracin (ZBA) in %,"pellet feed 2.6 complete feed for fattening pigs, 8 weeks",40.8%
same,Recovery rate of zinc bacitracin (ZBA) in %,"pellet feed 7.4 complete feed for fattening chicks, 1.5 weeks",67.5%
same,Recovery rate of zinc bacitracin (ZBA) in %,"pellet feed 7.4 complete feed for fattening chicks, 4 weeks",40.2%
same,Recovery rate of zinc bacitracin (ZBA) in %,"pellet feed 7.4 complete feed for fattening chicks, 6 weeks",24.9%
same,Recovery rate of zinc bacitracin (ZBA) in %,"pellet feed 7.4 complete feed for fattening chicks, 8 weeks",21.4%
same,Recovery rate of zinc bacitracin (ZBA) in %,"pellet feed 7.7 complete feed for laying hens, 1.5 weeks",81.5%
same,Recovery rate of zinc bacitracin (ZBA) in %,"pellet feed 7.7 complete feed for laying hens, 4 weeks",65.8%
same,Recovery rate of zinc bacitracin (ZBA) in %,"pellet feed 7.7 complete feed for laying hens, 6 weeks",51.1%
same,Recovery rate of zinc bacitracin (ZBA) in %,"pellet feed 7.7 complete feed for laying hens, 8 weeks",42.4%
